Data taken from patent US9295714B2, “Apparatus and method for transdermal delivery of parathyroid hormone agents” (Alza Corporation, priority 2004, dated 2016).

Tests used:
[1] = Pharmacokinetics of hPTH (1-34) after IV, SC and coated microprojection array administration; format: in vivo, hairless guinea pig; settings: for dose absorbed/delivered: AUC relative to IV
Solubility in water = format: physicochemical; settings: at pH 5
Description: Referring now to FIG. 10, there is shown a superposition of the mole ratios for acetic acid and the neutral form of hPTH (1-34). […] At pH 5, negligible amounts of PTH are present as PTH zero net charge (PTH 0). The PTH is also highly soluble in water at concentrations in excess of 20%. During drying and subsequent storage, the free acetic acid will evaporate inherently resulting in formation of the water insoluble PTH 0. Subsequent reconstitution in water will not allow total solubilization of PTH. Accordingly, the use of a low volatility counterion provides a solid soluble formulation of PTH as long as the pH is maintained at least 2.5 pH units, preferably 3 pH units, below the pI of PTH. Preferably, this can be achieved by providing at least about two low volatility counterions to each molecule of PTH.

urinary cAMP = assay: Urinary cAMP excretion after subcutaneous vs transdermal delivery; format: in vivo, human
Protocol: (§1) In this example, transdermal delivery of a PTH-based agent using a coated microprojection member was compared to conventional, subcutaneous delivery of teriparatide PTH (Forteo™). A dose-finding study was conducted with […], young females that received two treatments, separated by at least five days, according to randomly assigned sequence of 20 μg subcutaneous delivery of Forteo™ and 30 μg transdermal delivery of a PTH-based agent by coated microprojection. Bioavailability of transdermally delivered PTH was determined in 20 healthy, young females by administering two treatments, separated by at least five day, according to randomly assigned sequence of 40 μg subcutaneous delivery of Forteo™ and 30 μg transdermal delivery of a PTH-based agent by coated microprojection.
FIG. 12 further reflects a preferred pulsatile concentration profile of the PTH agent, i.e., rapid on-set and rapid off-set after reaching Cmax.

[2] = Plasma PTH after subcutaneous Forteo vs coated microprojection transdermal delivery; format: in vivo, human
Protocol: as §1
In the dose-finding study, two participants dropped out, eleven subjects participated and eight generated usable data. It was determined that three subjects had measurable PTH plasma levels following subcutaneous injection and eight subjects had measurable PTH plasma levels following transdermal delivery.

CC[C@H](C)[C@H](NC(=O)[C@H](CCC(=O)O)NC(=O)[C@H](CO)NC(=O)[C@@H](NC(=O)[C@@H](N)CO)C(C)C)C(=O)N[C@@H](CCC(N)=O)C(=O)N[C@@H](CC(C)C)C(=O)N[C@@H](CCSC)C(=O)N[C@@H](Cc1cnc[nH]1)C(=O)N[C@@H](CC(N)=O)C(=O)N[C@@H](CC(C)C)C(=O)NCC(=O)N[C@@H](CCCCN)C(=O)N[C@@H](Cc1cnc[nH]1)C(=O)N[C@@H](CC(C)C)C(=O)N[C@@H](CC(N)=O)C(=O)N[C@@H](CO)C(=O)N[C@@H](CCSC)C(=O)N[C@@H](CCC(=O)O)C(=O)N[C@@H](CCCN=C(N)N)C(=O)N[C@H](C(=O)N[C@@H](CCC(=O)O)C(=O)N[C@@H](Cc1c[nH]c2ccccc12)C(=O)N[C@@H](CC(C)C)C(=O)N[C@@H](CCCN=C(N)N)C(=O)N[C@@H](CCCCN)C(=O)N[C@@H](CCCCN)C(=O)N[C@@H](CC(C)C)C(=O)N[C@@H](CCC(N)=O)C(=O)N[C@@H](CC(=O)O)C(=O)N[C@H](C(=O)N[C@@H](Cc1cnc[nH]1)C(=O)N[C@@H](CC(N)=O)C(=O)N[C@@H](Cc1ccccc1)C(=O)O)C(C)C)C(C)C [hPTH (1-34)]
Fraction dose absorbed/delivered (%) ([1]; IV, 22.5 μg, hairless guinea pig): 100%
dose absorbed/delivered ([1]; SC, 19.5 μg): 8.2 ± 2.9 µg
dose absorbed/delivered ([1]; microprojection array, 40.0 μg): 6.6 ± 1.8 µg
solubility in water (concentration) (Solubility in water): > 20%
biological activity as evidenced by urinary cAMP excretion (urinary cAMP): comparable to that following subcutaneous delivery
subjects with measurable PTH plasma levels ([2]; bioavailability study, subcutaneous delivery (Forteo 40 μg), 20 subjects completed): 15 subjects
subjects with measurable PTH plasma levels ([2]; bioavailability study, transdermal delivery 30 μg, 20 subjects completed): 20 subjects
subjects with measurable PTH plasma levels ([2]; dose-finding study, subcutaneous injection (Forteo 20 μg), eight with usable data): three
subjects with measurable PTH plasma levels ([2]; dose-finding study, transdermal delivery 30 μg, eight with usable data): eight
